From ChEMBL document CHEMBL1201862, “PubChem BioAssay data set” (2004) come the findings set out here.

By IC50 is commonly meant the concentration that gives 50% inhibition. What is called EC50 is the concentration at which the effect is half-maximal. A word on the AC50: it is the concentration at which the activity in the assay is half-maximal.

Assay [1] concerns the target T1, Sentrin-specific protease 7 (Homo sapiens, UniProt Q9BQF6).
T1 sequence (Q9BQF6 whole entry): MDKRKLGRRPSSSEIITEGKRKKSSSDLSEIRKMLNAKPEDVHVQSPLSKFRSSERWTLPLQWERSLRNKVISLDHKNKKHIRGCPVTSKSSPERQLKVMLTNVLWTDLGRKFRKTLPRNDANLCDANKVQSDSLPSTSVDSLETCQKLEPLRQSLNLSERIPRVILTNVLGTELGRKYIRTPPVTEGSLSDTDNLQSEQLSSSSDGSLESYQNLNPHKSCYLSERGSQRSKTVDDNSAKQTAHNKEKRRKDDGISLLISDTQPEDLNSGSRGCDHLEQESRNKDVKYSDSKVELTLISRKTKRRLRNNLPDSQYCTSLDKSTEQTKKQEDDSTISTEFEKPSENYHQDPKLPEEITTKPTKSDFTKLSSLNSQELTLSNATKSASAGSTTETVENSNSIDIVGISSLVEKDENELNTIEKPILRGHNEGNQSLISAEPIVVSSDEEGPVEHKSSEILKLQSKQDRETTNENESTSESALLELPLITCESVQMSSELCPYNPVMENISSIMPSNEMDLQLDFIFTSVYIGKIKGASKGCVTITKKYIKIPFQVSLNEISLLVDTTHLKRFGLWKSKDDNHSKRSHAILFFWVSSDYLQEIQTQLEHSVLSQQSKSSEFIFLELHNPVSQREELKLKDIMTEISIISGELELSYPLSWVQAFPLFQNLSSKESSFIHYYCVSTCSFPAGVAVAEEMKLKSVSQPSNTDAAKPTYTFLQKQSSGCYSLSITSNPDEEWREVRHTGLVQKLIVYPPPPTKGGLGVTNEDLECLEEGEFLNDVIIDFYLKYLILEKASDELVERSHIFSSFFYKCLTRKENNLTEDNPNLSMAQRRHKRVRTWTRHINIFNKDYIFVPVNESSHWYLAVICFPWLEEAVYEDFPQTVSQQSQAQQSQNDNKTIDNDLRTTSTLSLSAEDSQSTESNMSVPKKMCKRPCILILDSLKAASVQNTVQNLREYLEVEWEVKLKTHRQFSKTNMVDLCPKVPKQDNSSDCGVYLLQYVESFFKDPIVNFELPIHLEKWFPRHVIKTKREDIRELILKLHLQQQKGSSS
Kind of assay: inhibition of human SENP7 cleavage activity – biochemical, luminescence, set 2, SAR follow-up (AID 588600). Type of assay: functional.

In assay [2] the target is T2, Caspase-3 (Homo sapiens, UniProt P42574).
T2 sequence (P42574 whole entry): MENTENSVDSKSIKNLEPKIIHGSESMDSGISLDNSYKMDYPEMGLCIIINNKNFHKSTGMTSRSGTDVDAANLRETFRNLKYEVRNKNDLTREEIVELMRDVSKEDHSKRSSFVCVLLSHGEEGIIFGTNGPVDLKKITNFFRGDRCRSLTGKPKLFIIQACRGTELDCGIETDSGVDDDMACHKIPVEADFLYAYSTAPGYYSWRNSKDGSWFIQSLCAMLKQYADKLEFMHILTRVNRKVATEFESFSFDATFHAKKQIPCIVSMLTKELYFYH
Kind of assay: SAR Analysis of small molecule inhibitors of Sentrin-specific proteases (SENPs) using a Caspase-3 Selectivity assay. [Related pubchem assays (depositor defined):AID2540, AID2599, AID434973, AID489001]. Type of assay: functional.

For assay [3], the target named is T3, Sentrin-specific protease 6 (Homo sapiens, UniProt Q9GZR1).
T3 sequence (Q9GZR1 whole entry): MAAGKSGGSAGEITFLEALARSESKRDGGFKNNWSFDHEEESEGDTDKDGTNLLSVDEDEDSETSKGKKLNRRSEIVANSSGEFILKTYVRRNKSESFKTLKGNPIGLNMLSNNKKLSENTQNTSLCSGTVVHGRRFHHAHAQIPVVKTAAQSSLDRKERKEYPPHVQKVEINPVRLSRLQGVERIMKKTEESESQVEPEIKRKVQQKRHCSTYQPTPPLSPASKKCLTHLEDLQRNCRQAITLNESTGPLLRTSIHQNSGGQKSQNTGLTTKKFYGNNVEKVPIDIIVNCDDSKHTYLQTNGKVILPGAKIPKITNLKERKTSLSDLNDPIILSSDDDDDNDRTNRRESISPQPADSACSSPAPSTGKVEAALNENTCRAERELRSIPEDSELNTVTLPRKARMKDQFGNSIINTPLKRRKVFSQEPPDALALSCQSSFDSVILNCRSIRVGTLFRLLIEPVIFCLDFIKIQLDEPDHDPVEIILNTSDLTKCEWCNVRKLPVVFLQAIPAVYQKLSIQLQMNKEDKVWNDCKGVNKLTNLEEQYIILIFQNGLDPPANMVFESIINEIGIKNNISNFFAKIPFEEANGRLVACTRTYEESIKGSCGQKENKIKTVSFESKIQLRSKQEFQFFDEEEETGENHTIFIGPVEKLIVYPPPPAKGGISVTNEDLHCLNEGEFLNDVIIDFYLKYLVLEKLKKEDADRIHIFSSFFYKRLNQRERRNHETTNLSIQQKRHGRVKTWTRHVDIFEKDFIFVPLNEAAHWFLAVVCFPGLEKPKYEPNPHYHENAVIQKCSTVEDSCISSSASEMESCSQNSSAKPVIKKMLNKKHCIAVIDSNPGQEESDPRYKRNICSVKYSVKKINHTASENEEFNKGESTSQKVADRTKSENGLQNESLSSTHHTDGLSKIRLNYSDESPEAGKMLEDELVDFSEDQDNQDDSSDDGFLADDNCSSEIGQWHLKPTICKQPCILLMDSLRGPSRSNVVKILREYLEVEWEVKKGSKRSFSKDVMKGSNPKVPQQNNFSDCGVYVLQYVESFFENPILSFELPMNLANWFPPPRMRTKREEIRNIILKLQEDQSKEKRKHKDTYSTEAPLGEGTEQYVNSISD
Kind of assay: SAR Analysis of small molecule inhibitors of Sentrin-specific protease 6 (SENP6) using a Luminescent assay. [Related pubchem assays (depositor defined):AID2582, AID2599]. Type of assay: functional.

Assay [4] has as its target T4, Sentrin-specific protease 8 (Homo sapiens, UniProt Q96LD8).
T4 sequence (Q96LD8 whole entry): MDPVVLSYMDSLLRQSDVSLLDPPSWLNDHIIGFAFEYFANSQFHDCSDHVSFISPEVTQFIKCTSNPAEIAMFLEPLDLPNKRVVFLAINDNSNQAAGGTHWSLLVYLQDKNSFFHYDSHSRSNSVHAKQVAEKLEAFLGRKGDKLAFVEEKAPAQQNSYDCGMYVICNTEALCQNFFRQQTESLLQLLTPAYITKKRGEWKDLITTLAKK
Kind of assay: inhibition of human SENP8 cleavage activity – biochemical, luminescence, SAR follow-up (AID 504501). Type of assay: functional.

For assay [5], the target named is T3, Sentrin-specific protease 6. Kind of assay: inhibition of human SENP6 catalytic domain – biochemical, luminescence, set 2, SAR follow-up (AID 588598). Type of assay: functional.
Assay [6] deals with T4, Sentrin-specific protease 8. Kind of assay: inhibition of sentrin protease 8 – biochemical, luminescence, set 2, SAR follow-up (AID 588601). Type of assay: functional.
Assay [7] concerns the target T1, Sentrin-specific protease 7. Kind of assay: inhibition of human SENP7 cleavage activity – biochemical, luminescence, SAR follow-up (AID 504497). Type of assay: functional.
Assay [8] has as its target T2, Caspase-3. Kind of assay: inhibition of recombinant caspase-3 activity – biochemical, luminescence, set 2, selectivity assay for SENP protease inhibitor project, SAR follow-up (AID 588599). Type of assay: functional.
For assay [9], the system named is HEK293. Kind of assay: membrane integrity loss in HEK cells – cell-based, fluorescence, cytotoxicity control for IDE activator project, dose response (AID 588440).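 Further: cytotoxicity by LDH release measuring loss of membrane integrity.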 Type of assay: functional. The following applies: Homo sapiens.
In assay [10] the target is T5, Insulin-degrading enzyme (Homo sapiens, UniProt P14735).
T5 sequence (P14735 whole entry): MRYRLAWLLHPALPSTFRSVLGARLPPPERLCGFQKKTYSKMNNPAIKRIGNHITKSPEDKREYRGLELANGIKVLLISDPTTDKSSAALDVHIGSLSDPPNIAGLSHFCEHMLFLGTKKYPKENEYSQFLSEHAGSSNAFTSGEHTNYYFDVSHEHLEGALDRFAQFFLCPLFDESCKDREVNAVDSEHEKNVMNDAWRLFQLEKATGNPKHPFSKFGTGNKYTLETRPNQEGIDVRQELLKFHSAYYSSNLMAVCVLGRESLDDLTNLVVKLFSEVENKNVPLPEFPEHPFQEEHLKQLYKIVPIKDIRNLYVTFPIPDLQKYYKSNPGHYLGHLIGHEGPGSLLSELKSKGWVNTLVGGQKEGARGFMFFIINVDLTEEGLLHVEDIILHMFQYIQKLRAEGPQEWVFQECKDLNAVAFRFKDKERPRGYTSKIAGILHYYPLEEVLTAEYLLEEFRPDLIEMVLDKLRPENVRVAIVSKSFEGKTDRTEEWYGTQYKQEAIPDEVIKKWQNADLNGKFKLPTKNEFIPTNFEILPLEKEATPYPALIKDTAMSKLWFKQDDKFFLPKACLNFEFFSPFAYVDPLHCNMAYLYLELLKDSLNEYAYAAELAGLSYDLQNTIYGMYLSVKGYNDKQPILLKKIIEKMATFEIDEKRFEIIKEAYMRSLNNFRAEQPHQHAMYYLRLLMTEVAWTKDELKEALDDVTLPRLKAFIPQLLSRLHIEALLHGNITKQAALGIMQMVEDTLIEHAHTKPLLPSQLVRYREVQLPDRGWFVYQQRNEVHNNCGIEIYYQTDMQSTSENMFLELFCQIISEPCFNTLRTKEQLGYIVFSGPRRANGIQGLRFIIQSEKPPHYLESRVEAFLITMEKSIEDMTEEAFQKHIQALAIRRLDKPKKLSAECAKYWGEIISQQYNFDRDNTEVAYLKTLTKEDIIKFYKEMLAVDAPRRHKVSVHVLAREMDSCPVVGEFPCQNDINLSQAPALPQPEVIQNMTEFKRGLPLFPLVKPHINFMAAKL
Put plainly: cellular IDE activation of Abeta substrate cleavage – fluorescence polarization, HEK cells, dose response (AID 588439). Type of assay: functional, cell-based. Background: Fluorescence polarisation rises when a labelled molecule tumbles more slowly, as on binding a larger partner.

The target of another assay is T6, Bcl-2-related protein A1 (Mus musculus, UniProt Q07440).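 Further: confirmatory dose–response counterscreen on Bfl-1, used to check hits from a UBC13 polyubiquitin inhibitor campaign.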
T6 sequence (Q07440 whole entry): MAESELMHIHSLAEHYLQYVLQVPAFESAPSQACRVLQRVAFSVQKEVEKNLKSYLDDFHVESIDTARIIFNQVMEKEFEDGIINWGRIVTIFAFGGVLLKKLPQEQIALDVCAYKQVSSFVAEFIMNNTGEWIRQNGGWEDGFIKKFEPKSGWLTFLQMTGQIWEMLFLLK
Type of assay: functional.

The nature of assay [11]: glucagon-like peptide-1 release potency in STC-1, concentration-response, half-maximal inhibitory concentration in the STC-1 line (AID 1117345). Type of assay: functional, cell-based.
For assay [12], the target named is T7, Ubiquitin-conjugating enzyme E2 N (Homo sapiens, UniProt P61088).
T7 sequence (P61088 whole entry): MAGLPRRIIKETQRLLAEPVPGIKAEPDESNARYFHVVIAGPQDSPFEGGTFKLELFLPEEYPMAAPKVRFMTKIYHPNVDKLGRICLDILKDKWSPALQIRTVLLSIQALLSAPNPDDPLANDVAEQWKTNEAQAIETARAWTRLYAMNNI
Type of assay: functional.

Assay [13] is described as follows: rise of 4N DNA cells, HeLa – IC50, dose response (AID 1117351). Type of assay: functional, cell-based.
Assay [14] has as its target T7, Ubiquitin-conjugating enzyme E2 N. Type of assay: functional. This is another data set of the same source.
Assay [15] is described as follows: rise of 2N DNA cells, HeLa – IC50, dose response (AID 1117349). Type of assay: functional, cell-based.
In assay [16] the target is Heat shock protein HSP 90-alpha (Homo sapiens, UniProt P07900). Type of assay: functional, organism-based.
Assay [17] is described as follows: Potency on glucagon-like peptide 1 release, dose-response in NCI-H716 cell line, half maximal inhibitory concentration (AID 1117344). Type of assay: functional, cell-based.
For assay [18], the system named is HEK293. Kind of assay: optical interference in Abeta FP readout, dose response, artefact control for IDE activator project, biochemical, fluorescence polarization (AID 588442). The following applies: Homo sapiens. Type of assay: functional, cell-based.
In assay [19] the target is Apoptotic protease-activating factor 1 (Homo sapiens, UniProt O14727). Type of assay: functional.
Chain of Apoptotic protease-activating factor 1 (O14727 whole entry): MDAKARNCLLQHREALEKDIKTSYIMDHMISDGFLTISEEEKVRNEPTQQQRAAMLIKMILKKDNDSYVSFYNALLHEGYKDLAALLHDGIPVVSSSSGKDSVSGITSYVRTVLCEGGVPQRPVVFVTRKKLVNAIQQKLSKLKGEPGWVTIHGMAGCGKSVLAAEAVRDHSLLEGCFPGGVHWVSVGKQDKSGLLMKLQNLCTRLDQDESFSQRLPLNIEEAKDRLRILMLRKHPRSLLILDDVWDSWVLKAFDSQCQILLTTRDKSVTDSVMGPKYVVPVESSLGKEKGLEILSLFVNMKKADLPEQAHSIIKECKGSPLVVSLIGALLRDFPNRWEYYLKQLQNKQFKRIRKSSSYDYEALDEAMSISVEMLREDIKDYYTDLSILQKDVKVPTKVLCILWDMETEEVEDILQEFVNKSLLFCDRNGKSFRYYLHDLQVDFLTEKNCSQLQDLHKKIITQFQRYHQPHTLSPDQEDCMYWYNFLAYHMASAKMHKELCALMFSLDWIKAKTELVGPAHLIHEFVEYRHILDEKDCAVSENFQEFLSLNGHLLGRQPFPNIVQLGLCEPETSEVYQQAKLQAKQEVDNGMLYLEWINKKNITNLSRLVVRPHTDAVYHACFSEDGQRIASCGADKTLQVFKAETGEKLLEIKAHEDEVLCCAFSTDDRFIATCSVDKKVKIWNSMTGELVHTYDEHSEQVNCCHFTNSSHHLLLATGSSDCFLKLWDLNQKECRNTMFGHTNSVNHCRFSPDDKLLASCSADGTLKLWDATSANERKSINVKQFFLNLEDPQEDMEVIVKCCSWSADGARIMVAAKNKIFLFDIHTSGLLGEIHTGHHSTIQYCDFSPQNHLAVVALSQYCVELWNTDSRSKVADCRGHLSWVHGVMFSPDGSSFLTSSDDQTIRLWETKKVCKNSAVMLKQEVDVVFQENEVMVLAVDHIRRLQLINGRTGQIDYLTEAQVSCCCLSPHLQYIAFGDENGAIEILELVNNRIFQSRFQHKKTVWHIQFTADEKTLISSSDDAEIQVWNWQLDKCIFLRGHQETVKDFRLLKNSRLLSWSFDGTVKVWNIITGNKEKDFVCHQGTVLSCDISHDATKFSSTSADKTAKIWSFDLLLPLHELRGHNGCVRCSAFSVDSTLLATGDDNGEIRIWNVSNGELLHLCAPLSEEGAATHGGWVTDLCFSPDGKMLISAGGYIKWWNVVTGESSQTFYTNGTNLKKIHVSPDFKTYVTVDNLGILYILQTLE
The target of a further assay is Large T antigen (Simian virus 40, UniProt P03070). Type of assay: functional, Betapolyomavirus macacae.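 Further: Confirmatory-stage PubChem screen for compounds that inhibit SV40 T antigen.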
Chain of Large T antigen (P03070 whole entry): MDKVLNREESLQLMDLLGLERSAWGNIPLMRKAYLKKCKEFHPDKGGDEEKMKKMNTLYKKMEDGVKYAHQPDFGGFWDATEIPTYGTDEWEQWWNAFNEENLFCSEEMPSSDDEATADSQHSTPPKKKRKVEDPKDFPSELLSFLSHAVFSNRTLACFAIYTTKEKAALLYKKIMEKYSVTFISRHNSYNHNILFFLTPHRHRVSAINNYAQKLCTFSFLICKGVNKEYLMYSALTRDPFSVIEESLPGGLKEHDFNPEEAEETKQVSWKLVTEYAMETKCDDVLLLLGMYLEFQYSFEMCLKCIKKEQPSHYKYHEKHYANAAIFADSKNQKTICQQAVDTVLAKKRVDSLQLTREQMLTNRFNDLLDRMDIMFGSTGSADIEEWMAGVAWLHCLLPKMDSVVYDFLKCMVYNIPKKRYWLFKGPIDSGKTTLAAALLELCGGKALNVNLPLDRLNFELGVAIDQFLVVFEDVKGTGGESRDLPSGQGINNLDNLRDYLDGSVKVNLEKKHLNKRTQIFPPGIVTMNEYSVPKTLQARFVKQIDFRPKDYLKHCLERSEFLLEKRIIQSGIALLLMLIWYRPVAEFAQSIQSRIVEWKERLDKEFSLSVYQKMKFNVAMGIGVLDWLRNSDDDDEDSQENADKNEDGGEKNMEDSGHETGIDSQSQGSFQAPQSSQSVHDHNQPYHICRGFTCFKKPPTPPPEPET
For assay [20], the target named is Dual specificity tyrosine-phosphorylation-regulated kinase 1A (Rattus norvegicus, UniProt Q63470). Type of assay: biochemical, Homo sapiens.
The subject of a further assay is INS1. Kind of assay: INS-1E survival protection against cytokine death – cell-based, luminescence, retest, dose response (AID 449756).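 Further: cell death triggered by IL-1 beta plus TNF-alpha plus IFN-gamma mixture; protective hits raise ATP signal compared with cytokine alone wells.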 Type of assay: functional. The following applies: Rattus norvegicus.
Assay [21] has as its target T5, Insulin-degrading enzyme. Put plainly: recombinant IDE activation, cell-free – biochemical, fluorescence polarization, counter-screen for IDE activator project, dose response (AID 588681).

Molecules are shown by their SMILES. Activity calls are given as the source filed them. For most assays here, no stated cut-off is given here; in the data, actives have a measured IC50 and inactives only a lower limit.

With `COc1cccc(-c2nc(/C=C/c3ccccc3)no2)c1`, the IC50 in assay [1] is 12.2 µM (active); at Caspase-3 [2], 47 µM (active); in assay [3] it was 45 µM (active); in [4], 52 µM (active); in assay [5], 13.5 µM (active); in [6], 12.2 µM (active). In addition, the IC50 in [7] is 14 µM (active); at Caspase-3 [8], 33.5 µM (active).

As for `CCCCCCCCCCCCCCCC[N+](C)(C)CCN(Cc1ccc(OC)cc1)c1ncccn1` [THONZONIUM BROMIDE], the IC50 in the assay on HEK293 [9] was 5.21 µM (active); at Bcl-2-related protein A1 it was 6.44 µM (active); in [11], > 40 µM (inactive); in assay [12] it was 2.86 µM (active); in assay [13], > 10 µM (inactive); in [14], 2.99 µM (active). Also, the IC50 in assay [15] is > 10 µM (inactive); in [17], 17.8 µM (inactive); in assay [19], 8.37 µM (active); at Large T antigen it was 15.4 µM (active). Also, the EC50 on Insulin-degrading enzyme [10] was > 54.7 µM (inactive); in the assay with HEK293 [18], > 55.9 µM (inactive); on Insulin-degrading enzyme [21], 53.3 µM (inactive). The AC50 is 6.06 µM (active) in assay [16], 9.42 µM (active) in [20] and 2.54 µM (active) in the assay with INS1.
